Assay results taken from patent US6875761B2 (Eisai Co., Ltd., priority 1997, dated 2005).
Counter-ions that a name gives are not always drawn.

What was measured:
serotonin 1A receptor = target: T1, serotonin 1A receptor (Rattus norvegicus, UniProt P19327); experiment: Binding test on [3H] 8-hydroxy-dipropylaminotetralin, hippocampus receptor fraction; parameters: species or system SD rats; conditions: rat hippocampus receptor fraction, 0.5 nM [3H] 8-OH-DPAT, room temperature 30 min; read-out: 5HT1
T1 construct: To the receptor fraction of the hippocampus were added a test compound and 0.5 nM of [^3H]; 8-hydroxy-dipropylaminotetralin; from tissue; host or cells: rat hippocampus membrane fraction
T1 sequence (P19327 1-422): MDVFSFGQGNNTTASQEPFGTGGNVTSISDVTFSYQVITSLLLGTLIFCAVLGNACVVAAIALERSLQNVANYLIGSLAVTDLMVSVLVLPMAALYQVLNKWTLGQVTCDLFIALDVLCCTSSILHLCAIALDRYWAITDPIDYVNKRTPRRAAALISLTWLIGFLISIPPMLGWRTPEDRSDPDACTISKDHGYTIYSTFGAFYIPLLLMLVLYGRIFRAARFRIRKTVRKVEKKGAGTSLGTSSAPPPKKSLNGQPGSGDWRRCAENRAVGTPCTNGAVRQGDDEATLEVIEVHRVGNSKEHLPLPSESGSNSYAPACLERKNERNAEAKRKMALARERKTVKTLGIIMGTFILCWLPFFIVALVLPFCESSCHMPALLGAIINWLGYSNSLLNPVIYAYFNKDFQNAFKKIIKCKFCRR

serotonin 2 receptor = target: T2, serotonin 2 receptor (Rattus norvegicus, UniProt P14842); experiment: Binding test on [3H] ketanserin, cerebral cortex receptor fraction; parameters: species or system SD rats; conditions: 0.3 nM [3H] ketanserin, 37° C. 15 min, read-out: 5HT2
T2 construct: To the receptor fraction of the cerebral cortex were added a test compound and 0.3 nM of [^3H] ketanserin; from tissue; host or cells: rat cerebral cortex membrane fraction

α1 adrenalin receptor = experiment: Binding test on [3H] prazosin, cerebral cortex receptor fraction; parameters: species or system SD rats; conditions: rat cerebral cortex receptor fraction, about 0.2 nM [3H] prazosin, room temperature 60 min; read-out: α 1

T2 sequence (P14842 whole entry): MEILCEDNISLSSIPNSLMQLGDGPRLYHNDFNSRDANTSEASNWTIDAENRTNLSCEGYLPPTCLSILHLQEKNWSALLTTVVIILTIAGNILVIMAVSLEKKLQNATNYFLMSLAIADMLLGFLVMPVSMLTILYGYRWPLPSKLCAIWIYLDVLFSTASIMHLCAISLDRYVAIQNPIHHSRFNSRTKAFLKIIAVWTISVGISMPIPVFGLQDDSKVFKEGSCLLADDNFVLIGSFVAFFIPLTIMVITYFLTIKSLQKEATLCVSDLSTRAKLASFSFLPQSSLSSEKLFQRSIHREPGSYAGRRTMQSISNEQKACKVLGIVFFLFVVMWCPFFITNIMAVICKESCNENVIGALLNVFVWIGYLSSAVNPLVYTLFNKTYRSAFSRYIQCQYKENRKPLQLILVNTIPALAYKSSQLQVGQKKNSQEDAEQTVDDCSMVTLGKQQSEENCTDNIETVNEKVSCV

melting point	SMILES	Ki (serotonin 1A receptor)	Ki (serotonin 2 receptor)	Ki (α1 adrenalin receptor)
	CCN1CCN(c2nc(-c3ccc(CCCO)cc3)cc3ccccc23)CC1 [Example 20, 1-(4-ethylpiperazin-1-yl)-3-[4-(3-hydroxypropyl)phenyl]isoquinoline hydrochloride]	14.5 nM	2.6 nM	868 nM
	CCCC(O)c1ccc(-c2cc3ccccc3c(N3CCN(CC)CC3)n2)cc1 (stereo not shown) [Example 21, 1-(4-ethylpiperazin-1-yl)-3-[4-(1-hydroxybutyl)phenyl]isoquinoline oxalate]	17.2 nM	4.3 nM	636 nM
	CCN1CCN(c2nc(-c3ccc(OC)cc3OC)cc3ccccc23)CC1 [Example 12, 3-(2,4-dimethoxyphenyl)-1-(4-ethylpiperazin-1-yl)isoquinolin Dihydrochloride]	140 nM	5.32 nM	4110 nM
	CCN1CCN(c2nc(C#Cc3ccccn3)cc3ccccc23)CC1 [Example 179, 1-(1-Ethylpiperazin-4-Yl)-3-(2-Pyridyl)Ethynylisoquinoline Oxalate]	5.3 nM	0.4 nM	208 nM
	CCN1CCN(c2nc(-c3ccc(N4CCOCC4)cc3)cc3ccccc23)CC1 [Example 160, 3-[4-(4-morpholinyl)phenyl]-1-(4-ethylpiperazin-1-yl)isoquinoline dihydrochloride]	22.2 nM	0.7 nM	536 nM
	CCN1CCN(c2nc(-c3ccc(C(C)O)cc3)cc3sccc23)CC1 (stereo not shown) [Example 281, 4-(4-ethylpiperazin-1-yl)-6-[4-(1-hydroxyethyl)phenyl]thieno[3,2-c]pyridine oxalate]	15 nM	16.9 nM	345 nM
	COc1ccc(-c2cc3ccccc3c(N3CCN(CCO)CC3)n2)cc1 [Example 242, 1-[4-(2-hydroxyethyl)piperazin-1-yl]-3-(4-methoxyphenyl)isoquinoline Dihydrochloride]			1790 nM
239 °C (dec.)	CCN1CCN(c2nc(-c3ccc(/C=N\O)cc3)cc3ccccc23)CC1.Cl [Example 60, (Z)-1-(4-Ethylpiperazin-1-Yl)-3-(4-Hydroxyiminomethylphenyl)Isoquinoline Hydrochloride]	21.3 nM	9.1 nM	
	CCN1CCN(c2nc(-c3ccc(OCCF)cc3)cc3ccccc23)CC1 [Example 45, 1-(4-Ethylpiperazin-1-Yl)-3-[4-(2-Fluoroethoxy)Phenyl]Isoquinoline Dihydrochloride]	45 nM	1.1 nM	1220 nM
	CCN1CCN(c2nc(-c3cnc(N4CCOCC4)s3)cc3ccccc23)CC1 [Example 173, 1-(1-ethylpiperazin-4-yl)-3-[2-(4-morpholinyl)-5-thiazolyl]isoquinoline dihydrochloride]	3.9 nM	4.8 nM	284 nM
	CCN1CCN(c2nc(-c3ccc(CCC(C)O)cc3)cc3ccccc23)CC1 (stereo not shown) [Example 22, 1-(4-ethylpiperazin-1-yl)-3-[4-(3-hydroxybutyl)phenyl]isoquinoline oxalate]	9.4 nM	1.5 nM	3100 nM
158 to 160 °C	CCN1CCN(c2nc(-c3cc(OC)c(OC)cc3OC)cc3ccccc23)CC1.Cl [Example 16, 1-(4-ethylpiperazin-1-yl)-3-(2,4,5-trimethoxyphenyl)isoquinoline dihydrochloride]	30 nM	44 nM	
	CCN1CCN(c2nc(-c3ccc(CCCO)c(C#N)c3)cc3ccccc23)CC1 [Example 32, 3-[3-cyano-4-(3-hydroxypropyl)phenyl]-1-(4-ethylpiperazin-1-yl)isoquinoline hydrochloride]	10.1 nM	7.8 nM	500 nM
251 to 253 °C	CCN1CCN(c2nc(-c3ccc(C4CCOCC4)s3)cc3ccccc23)CC1.Cl [Example 166, 3-[2-(tetrahydropyran-4-yl]thiophen-5-yl]-1-(4-ethylpiperazin-1-yl)isoquinoline hydrochloride]	81.9 nM	11.5 nM	
	CCN1CCN(c2nc(-c3ccc(CCCO)c(F)c3)cc3ccccc23)CC1 [Example 29, hydrochloride]	9.6 nM	3.5 nM	668 nM
	CCN1CCN(c2nc(-c3ccc(OCCO)cc3)cc3ccsc23)CC1 [Example 259, 7-(4-ethylpiperazin-1-yl)-5-(4-hydroxyethoxyphenyl)thieno[2,3-c]pyridine Hydrochloride]	9.26 nM	18.9 nM	405 nM

melting point	SMILES	Ki (serotonin 1A receptor)	Ki (serotonin 2 receptor)	Ki (α1 adrenalin receptor)
	CCN1CCN(c2nc(C#Cc3ccccc3OCCO)cc3ccccc23)CC1 [Example 187, 1-(1-Ethylpiperazin-4-Yl)-3-[2-(2-Hydroxyethoxylphenyl]Ethynylisoquinoline Oxalate]	9.81 nM	2.53 nM	969 nM
	CCN1CCN(c2nc(-c3ccc(OCCOC)nc3)cc3ccccc23)CC1 [Example 126, 1-(1-Ethylpiperazin-4-yl)-3-[2-(2-Methoxyethoxy)Pyridin-5-yl]Isoquinoline]	26.4 nM	5.7 nM	382 nM
	CCN1CCN(c2nc(-c3ccc(CCCO)c(OC)c3)cc3ccccc23)CC1 [Example 33, 1-(4-ethylpiperazin-1-yl)-3-[4-(3-hydroxypropyl)-3-methoxyphenyl]isoquinoline hydrochloride]	7.9 nM	10.9 nM	758 nM
	CCN1CCN(c2nc(C#CCc3ccccc3)cc3ccccc23)CC1 [Example 181, 1-(1-Ethylpiperazin-4-Yl)-3-(3-Phenyl-1-Propynyl)Isoquinoline Oxalate]	17.9 nM	6.7 nM	920 nM
	CCN1CCN(c2nc(-c3ccc(OCCO)cc3)cc3sccc23)CC1 [Example 286, dihydrochloride]			305 nM
	CCN1CCN(c2nc(CCc3ccc(OCCO)cc3)cc3ccccc23)CC1 [Example 109, 1-(1-Ethylpiperazin-4-yl)-3-[4-(2-hydroxyethoxy)phenethyl]isoquinoline]			> 2000 nM
	CCN1CCN(c2nc(NCc3ccc(OC)cc3)cc3ccccc23)CC1 [Example 220, 1-(1-ethylpiperazin-4-yl)-3-(4-methoxybenzylamino)isoquinoline oxalate]	0.53 nM	2.01 nM	3800 nM
	CCC(O)c1ccc(-c2cc3ccccc3c(N3CCN(CC)CC3)n2)cc1 (stereo not shown) [Example 19, 1-(4-ethylpiperazin-1-yl)-3-[4-(1-hydroxypropyl)phenyl]isoquinoline hydrochloride]	6.9 nM	1.6 nM	373 nM
	CCN1CCN(c2nc(-c3ccc4c(c3)CC(CO)C4)cc3ccccc23)CC1 (stereo not shown) [Example 393, 1-(4-Ethylpiperazin-1-yl)-3-(2-Hydroxymethylindan-5-yl)Isoquinoline Dihydrochloride]	13.1 nM	1.8 nM	242 nM
243 °C (dec.)	CCN1CCN(c2nc(-c3ccc(/C=N/O)cc3)cc3ccccc23)CC1.Cl [Example 61, (E)-1-(4-Ethylpiperazin-1-Yl)-3-(4-Hydroxyiminomethylphenyl)Isoquinoline Hydrochloride]	11.7 nM	8.2 nM	
	CCN1CCN(c2nc(-c3ccc(OCCOC)cc3)cc3ccccc23)CC1 [Example 42, 1-(4-ethylpiperazin-1-yl)-3-[4-(2-methoxyethoxy)phenyl]isoquinoline dihydrochloride]	33.1 nM	4.4 nM	2450 nM
	CCN1CCN(c2nc(C#Cc3ccc(OCCO)cc3)cc3ccccc23)CC1 [Example 183, 1-(1-Ethylpiperazin-4-Yl]-3-[4-(2-Hydroxyethoxy)Phenylethynyl]Isoquinoline Dihydrochloride]	14.1 nM	3.36 nM	577 nM
	CCN1CCN(c2nc(-c3ccc(CCCCO)cc3)cc3ccccc23)CC1 [Example 23, 3-[4-(4-hydroxybutyl)phenyl]-1-(4-ethylpiperazin-1-yl)isoquinoline hydrochloride]	16.8 nM	6.4 nM	1250 nM
	CCCNC(=O)c1ccc(-c2cc3ccccc3c(N3CCN(CC)CC3)n2)cc1 [Example 63, 1-(4-Ethylpiperazin-1-Yl)-3-(4-N-Propylaminocarbonylphenyl)Isoquinoline Hydrochloride]	18.1 nM	0.84 nM	252 nM
	CCCN1CCN(c2nc(-c3ccc(OCC(C)(C)O)cc3)cc3sccc23)CC1 [Example 289, 6-[4-(2-methyl-2-hydroxypropoxy)phenyl]-4-(4-propylpiperazin-1-yl)thieno[3,2-c]pyridine hydrochloride]			1310 nM

SMILES	melting point	Ki (serotonin 1A receptor)	Ki (serotonin 2 receptor)	Ki (α1 adrenalin receptor)
CCN1CCN(c2nc(-c3ccc(CCCO)c(C(N)=O)c3)cc3ccccc23)CC1 [Example 31, 3-[3-carboxamide-4-(3-hydroxypropyl)phenyl]-1-(4-ethylpiperazin-1-yl)isoquinoline]	213 to 218 °C (dec.)	10.7 nM	30.3 nM	
